From patent publication US6455041B1, “Immunogenic epitopes of the human zona pellucida protein (ZP1)” (priority 1998, dated 2002)

Legend:
[1] = system: antibodies from rabbits immunized with heat solubilized, native porcine ZP proteins (HSZP); test: Biotinylated peptide assay, pooled antisera from rabbits immunized with porcine ZP (HSPZ); type: binding, rabbit; conditions: Complete Freund's Adjuvant, FIG. 1B
Description: (§1) Peptides containing 15 amino acid residues, which overlapped by 9 amino acids, were designed to ensure that all potential epitopes would be identified. Biotinylated peptides (BP) containing 15-mers with a 9-amino acid overlap were synthesized by Chiron Mimotopes Pty. Ltd. (Victoria, Australia).
(§2) For the assay, streptavidin (Sigma Chemicals, S-4762) was diluted to 5 μg/ml in deionized water and dispensed at 100 μl well into 96-well microtiter plates (Immulon 2, Dynatech Labs) and plates are incubated overnight at 32° C. to evaporate to complete dryness. Plates were then rinsed four times in wash buffer of pH 7.3, consisting of 0.02M sodium phosphate containing 0.15M NaCl and 0.05% Tween 20. The plates were blocked using 200 μl 0.02M sodium phosphate buffered saline (PBS) containing 2% nonfat dried milk (pH 8.8) for 2 hours at room temperature and the rinse was repeated. Blocking and all incubations were carried out using a Minimix shaker (Fisher). Biotinylated peptides were then dispensed such that the final: dilution of each was 1:10,000 and was made in wash buffer containing 2% nonfat dried milk. […]
(§3) After rinsing with blocking solution, 100 μl/well of antibody solution was added and plates incubated at RT for 2 hours with shaking. […] The plates were incubated at RT with shaking for 45 minutes and read in a Titertek Multiskan reader at 405 nm. […]

[2] = system: antibodies from baboons immunized with HSZP; test: Biotinylated peptide assay, antisera from baboons immunized with porcine ZP (HSPZ); type: binding, baboon; conditions: for peptide recognition by sera of individual baboons: four baboons (#1994, #2020, #2044, #2032) immunized with HSZP, sera 3 weeks after second booster, dilution 1/1000, FIGS. 2A-2D; for peptide recognition by baboon serum pool: pooled antisera from baboons immunized with HSZP, TiterMax adjuvant, FIG. 1C
Description: Lyophilized porcine ZP immogen was prepared and solubilized in 0.1 M sodium carbonate, pH 9.6 and heated at 60° C. for ten minutes as previously described (42, 45). Immunogen was emulsified in Titer Max adjuvant (50%) by passage through syringes with 19 gauge needles connected by tygon tubing. Animals were sedated with Ketarmine (10 mg/kg) prior to injection with 200 μl containing ^150 μg ZP immunogen (primary and boosts). Animals were immunized and boosted at 3 week and 6 week intervals.
Blood samples were collected at approximately 3 week intervals following the booster injections, and were obtained from femoral veins under Ketamine sedation. Serum was isolated by conventional methods an conveyed frozen to the U.S.A. laboratory facility for analysis. For the present studies, serum samples taken at three weeks following the second booster injection were used. The ELISA assay previously described by Drell and Dunbar, 1984 (46) was used to determine the levels of antibody against immobilized HSPZ. Antisera previously obtained from baboons immunized against electrophoretically purified porcine ZP1 (35) were used as a positive control for these assays. Nonimmune sera from animals immunized with adjuvant alone were used as a negative control.
as §1
For the assay, streptavidin (Sigma Chemicals, S-4762) was diluted to 5 μg/ml in deionized water and dispensed at 100 μl well into 96-well microtiter plates (Immulon 2, Dynatech Labs) and plates are incubated overnight at 32° C. to evaporate to complete dryness. Plates were then rinsed four times in wash buffer of pH 7.3, consisting of 0.02M sodium phosphate containing 0.15M NaCl and 0.05% Tween 20. The plates were blocked using 200 μl 0.02M sodium phosphate buffered saline (PBS) containing 2% nonfat dried milk (pH 8.8) for 2 hours at room temperature and the rinse was repeated. Blocking and all incubations were carried out using a Minimix shaker (Fisher). Biotinylated peptides were then dispensed such that the final: dilution of each was 1:10,000 and was made in wash buffer containing 2% nonfat dried milk. Peptides (100 μl per well) were incubated overnight at 4° C. on the shaker.
Initially, each peptide was solubilized in 200 μl of DMSO per manufacturers' instructions and stored this long term at −80° C. Approximately 2 μl was used to make a 1:5,000 stock solution diluted in PBs containing 0.1% BSA and 0.1% sodium aside. These stocks were then stored at −20° C. and are diluted 1:10,000 for assays. […]

[3] = system: antibodies in sera of baboons administered electrophoretically purified, denatured porcine ZP proteins; test: Biotinylated peptide assay, sera from baboons immunized with chemically deglycosylated, electrophoretically purified porcine ZP proteins; type: binding, baboon; conditions: two baboons immunized with deglycosylated, FIGS. 3A-3B
Description: as §1
as §2, with “(Fisher).” for “(Fisher). Biotinylated peptides were then dispensed such that the final: dilution of each was 1:10,000 and was made in wash buffer containing 2% nonfat dried milk.”
as §3
Additional sera from baboons administered electrophoretically purified, denatured porcine ZP proteins as the immunogen (35), were evaluated. […]

54 (SGSGFPETQPGPLTLELQI; listed as Homo sapiens) [compound 54]
peptide recognition by rabbit serum pool [1]: recognized by both serum pools | peptide recognition by sera of individual baboons [2]: all four of the animals recognized | peptide recognition by baboon serum pool [2]: recognized by both serum pools | peptide recognition by baboon sera [3]: again recognized by the baboon sera

55 (SGSGGPLTLELQIAKDKNY; listed as Homo sapiens) [compound 55]
peptide recognition by rabbit serum pool [1]: recognized by both serum pools | peptide recognition by sera of individual baboons [2]: all four of the animals recognized | peptide recognition by baboon serum pool [2]: recognized by both serum pools | peptide recognition by baboon sera [3]: again recognized by the baboon sera
